According to patent US10874646B2, “Epothilone analogs, methods of synthesis, methods of treatment, and drug conjugates thereof” (WILLIAM MARSH RICE UNIVERSITY, priority 2015, dated 2020):

Tests used:
[1] = system: NCI-60 human cancer cell line panel; assay: NCI-60 initial one dose test; format: cell-based; conditions: 10 μM
Source text: (§1) Biological evaluation. The synthesized epothilone analogues were submitted to the NCI for testing against the NCI-60 human cancer cell line panel (Shoemaker, 2006).

[2] = system: tubulin; assay: Induction/enhancement of tubulin assembly (Lin, et al., 1996); format: biochemical; conditions: 10 μM tubulin, 0.4M monosodium glutamate, 30 min at room temperature; Table 2; read-out: induction of tubulin assembly (EC50, μM ± SD)
[3] = system: MCF-7; assay: Cytotoxicity, standard NCI assay with sulforhodamine B, 96 h; conditions: Homo sapiens, MCF7, 96 h, read-out: cytotoxicity (GI50, nM ± SD) MCF-7
[4] = system: OVCAR-8; assay: as above; conditions: Homo sapiens, OVCAR-8, 96 h, read-out: cytotoxicity (GI50, nM ± SD) OVCAR-8
[5] = system: A498; assay: NCI-60 human cancer cell line panel, five dose screen; format: cell-based; conditions: NCI-60 five dose screen
Source text: as §1

[6] = system: A549/ATCC; assay: as above; format: cell-based; conditions: NCI-60 five dose screen
Source text: as §1

[7] = system: CCRF-CEM; assay: as above; format: cell-based; conditions: NCI-60 five dose screen
Source text: as §1

[8] = system: COLO 205; assay: as above; format: cell-based; conditions: NCI-60 five dose screen
Source text: as §1

[9] = system: HCT-116; assay: as above; format: cell-based; conditions: NCI-60 five dose screen
Source text: as §1

[10] = system: HCT-15; assay: as above; format: cell-based; conditions: NCI-60 five dose screen
Source text: as §1

[11] = system: HL-60(TB); assay: as above; format: cell-based; conditions: NCI-60 five dose screen
Source text: as §1

[12] = system: HOP-92; assay: as above; format: cell-based; conditions: NCI-60 five dose screen, read-out: GI50
Source text: as §1

[13] = system: HS 578T; assay: as above; format: cell-based; conditions: NCI-60 five dose screen
Source text: as §1

[14] = system: HT29; assay: as above; format: cell-based; conditions: HT-29, NCI-60 five dose screen
Source text: as §1

[15] = system: K-562; assay: as above; format: cell-based; conditions: K562, NCI-60 five dose screen
Source text: as §1

[16] = system: KM12; assay: as above; format: cell-based; conditions: NCI-60 five dose screen
Source text: as §1

[17] = system: LOX IMVI; assay: as above; format: cell-based; conditions: NCI-60 five dose screen
Source text: as §1

[18] = system: M14; assay: as above; format: cell-based; conditions: NCI-60 five dose screen
Source text: as §1

[19] = system: MCF7; assay: as above; format: cell-based; conditions: NCI-60 five dose screen
Source text: as §1

[20] = system: MDA-MB-435; assay: as above; format: cell-based; conditions: NCI-60 five dose screen
Source text: as §1

[21] = system: MDA-MB-468; assay: as above; format: cell-based; conditions: NCI-60 five dose screen
Source text: as §1

[22] = system: MOLT-4; assay: as above; format: cell-based; conditions: NCI-60 five dose screen
Source text: as §1

[23] = system: NCI-H23; assay: as above; format: cell-based; conditions: NCI-60 five dose screen
Source text: as §1

[24] = system: NCI-H460; assay: as above; format: cell-based; conditions: NCI-60 five dose screen
Source text: as §1

[25] = system: OVCAR-3; assay: as above; format: cell-based; conditions: NCI-60 five dose screen
Source text: as §1

[26] = system: PC-3; assay: as above; format: cell-based; conditions: NCI-60 five dose screen
Source text: as §1

[27] = system: RPMI-8226; assay: as above; format: cell-based; conditions: NCI-60 five dose screen
Source text: as §1

[28] = system: RXF 393; assay: as above; format: cell-based; conditions: NCI-60 five dose screen
Source text: as §1

[29] = system: SF-539; assay: as above; format: cell-based; conditions: NCI-60 five dose screen
Source text: as §1

[30] = system: SK-MEL-5; assay: as above; format: cell-based; conditions: NCI-60 five dose screen
Source text: as §1

[31] = system: SNB-75; assay: as above; format: cell-based; conditions: NCI-60 five dose screen
Source text: as §1

[32] = system: SR; assay: as above; format: cell-based; conditions: NCI-60 five dose screen
Source text: as §1

[33] = system: SW-620; assay: as above; format: cell-based; conditions: NCI-60 five dose screen
Source text: as §1

[34] = system: U251; assay: as above; format: cell-based; conditions: U-251, NCI-60 five dose screen
Source text: as §1

`CSc1cc(/C=C(\C)[C@@H]2C[C@@H]3O[C@]3(C)CCC[C@H](C)[C@H](O)[C@@H](C)C(=O)C(C)(C)[C@@H](O)CC(=O)O2)n(CCNC(=O)OC(C)(C)C)n1` [Compound 5] was tested, and the “activity in initial one dose test” value [1] was “did not exhibit significant activity”, the EC50 [2] was > 40 µM and the GI50 [3] was 1600 nM. For the same compound, the GI50 [4] was 900 nM.

For `C/C(=C\c1cc(C(F)(F)F)nn1CCNC(=O)OC(C)(C)C)[C@@H]1C[C@@H]2O[C@]2(C)CCC[C@H](C)[C@H](O)[C@@H](C)C(=O)C(C)(C)[C@@H](O)CC(=O)O1` [Compound 6], the “activity in initial one dose test” value [1] was “did not exhibit significant activity”, the EC50 [2] was > 40 µM and the GI50 [3] was 4400 nM. The GI50 [4] was 1200 nM.

In the case of `C/C(=C\c1cc(C(F)(F)F)nn1CCNC(=O)OCC[Si](C)(C)C)[C@@H]1C[C@@H]2O[C@]2(C)CCC[C@H](C)[C@H](O)[C@@H](C)C(=O)C(C)(C)[C@@H](O)CC(=O)O1` [Compound 7], the “activity in initial one dose test” value [1] is reported as “did not exhibit significant activity”, the EC50 [2] is reported as > 40 µM and the GI50 [3] is reported as 1800 nM. The GI50 [4] was 1300 nM.

For `C/C(=C\c1ccn(-c2ccc(N)cc2)n1)[C@@H]1C[C@@H]2O[C@]2(C)CCC[C@H](C)[C@H](O)[C@@H](C)C(=O)C(C)(C)[C@@H](O)CC(=O)O1` [Compound 8], the GI50 [5] was 102 nM, the GI50 [6] was 36.9 nM and the GI50 [7] was 34.1 nM. It also gave a GI50 [8] of 18.6 nM, a GI50 [9] of 18.7 nM and a GI50 [10] of 26.7 nM. For the same compound, the GI50 [11] was 15.8 nM, the GI50 [12] was 146 nM and the GI50 [13] was 44 nM. It also gave a GI50 [14] of 19.6 nM, a GI50 [15] of 24.7 nM and a GI50 [16] of 19.2 nM. For the same compound, the GI50 [17] was 23.6 nM, the GI50 [18] was 19.2 nM and the GI50 [19] was 15.2 nM. For the same compound, the GI50 [20] was 8.09 nM, the GI50 [21] was 39.2 nM and the GI50 [22] was 38.9 nM. For the same compound, the GI50 [23] was 25.2 nM, the GI50 [24] was 20.5 nM and the GI50 [25] was 18.1 nM. It also gave a GI50 [26] of 30.4 nM, a GI50 [27] of 21.3 nM and a GI50 [28] of 38.4 nM. It also gave a GI50 [29] of 19 nM, a GI50 [30] of 20 nM and a GI50 [31] of 11.4 nM. The GI50 [32] was 30.3 nM, the GI50 [33] was 25 nM and the GI50 [34] was 35.6 nM. For the same compound, the EC50 [2] was 15 ± 4 µM, the GI50 [3] was 10 nM and the GI50 [4] was 38 ± 10 nM.
